Assay results taken from ChEMBL document CHEMBL1140073, “6-Azido-7-nitro-1,4-dihydroquinoxaline-2,3-dione (ANQX) forms an irreversible bond to the active site of the GluR2 AMPA receptor” (J Med Chem, 2008).

Target: Glutamate receptor 2 (Homo sapiens, UniProt P42262)
Assay: Inhibition of GluR2 receptor

Chain of Glutamate receptor 2 (P42262 whole entry): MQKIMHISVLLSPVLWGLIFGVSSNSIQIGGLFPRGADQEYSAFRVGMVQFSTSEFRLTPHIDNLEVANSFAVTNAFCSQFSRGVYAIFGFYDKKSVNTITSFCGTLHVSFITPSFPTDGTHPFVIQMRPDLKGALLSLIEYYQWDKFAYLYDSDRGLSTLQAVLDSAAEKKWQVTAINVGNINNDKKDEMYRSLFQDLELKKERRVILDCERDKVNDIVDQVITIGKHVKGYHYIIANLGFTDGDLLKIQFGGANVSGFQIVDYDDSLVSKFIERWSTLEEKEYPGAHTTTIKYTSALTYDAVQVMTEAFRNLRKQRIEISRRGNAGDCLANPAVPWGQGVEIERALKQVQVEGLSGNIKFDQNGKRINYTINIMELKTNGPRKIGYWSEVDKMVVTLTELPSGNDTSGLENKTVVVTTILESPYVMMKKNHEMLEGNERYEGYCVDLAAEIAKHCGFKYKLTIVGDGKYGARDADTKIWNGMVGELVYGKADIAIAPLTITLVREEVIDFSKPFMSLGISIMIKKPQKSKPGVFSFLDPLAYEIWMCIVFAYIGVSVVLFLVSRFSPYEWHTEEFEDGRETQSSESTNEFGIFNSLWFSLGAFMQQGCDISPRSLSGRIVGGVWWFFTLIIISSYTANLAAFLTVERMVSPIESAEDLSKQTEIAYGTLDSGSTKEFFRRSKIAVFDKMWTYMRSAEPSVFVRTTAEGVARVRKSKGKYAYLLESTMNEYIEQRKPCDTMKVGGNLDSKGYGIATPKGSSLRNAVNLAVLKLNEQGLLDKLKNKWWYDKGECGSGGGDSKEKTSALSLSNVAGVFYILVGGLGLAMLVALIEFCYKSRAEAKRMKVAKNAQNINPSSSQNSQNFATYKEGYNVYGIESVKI

IC50	SMILES
1 µM	[N-]=[N+]=Nc1cc2[nH]c(=O)c(=O)[nH]c2cc1[N+](=O)[O-]
7.6 µM	O=c1[nH]c2cc3no[n+]([O-])c3cc2[nH]c1=O
